According to ChEMBL document CHEMBL5608244, “Preclinical Evaluation of Dihydropyrazole-Cored Positron Emission Tomography (PET) Ligands for Imaging of Receptor-Interacting Serine/Threonine Protein Kinase 1 (RIPK1) in the Brain” (J Med Chem, 2024):

Key:
[1] = Biodistribution in ICR mouse muscle at 0.74 MBq, iv measured after 10 mins by automatic gamma counter analysis; format: ADME, organism-based, Muscle tissue; settings: in vivo
[2] = Stability in Balb/c mouse plasma measured for 60 to 150 mins by reversed-phase HPLC analysis; format: ADME; settings: time 60-150 min
[3] = Drug uptake in Sprague-Dawley rat brain assessed as reduction in radioactivity at 10 to 17.6 MBq, iv pretreated with GSK'547 followed by compound administration measured upto 30 mins by PET analysis; format: ADME, organism-based; set-up: scale not given: the % may be the effect or the level left; settings: in vivo, 0.5 h, dose 10-17.6 MBq
[4] = Biodistribution in ICR mouse spleen at 0.74 MBq, iv measured after 30 mins by automatic gamma counter analysis; format: ADME, organism-based; settings: in vivo, 0.5 h
[5] = Drug uptake in thalamus of ICR mouse brain assessed as reduction in radioactivity at 0.5 to 10 uM incubated for 30 mins in presence of 10 uM of 1-(5-(3-fluorophenyl)-4,5-dihydro-1H-pyrazol-1-yl)-2,2-dimethylpropan-1-one by Phosphor Imager analysis; format: ADME, tissue-based; set-up: scale not given: the % may be the effect or the level left; settings: 0.5 h, dose 0.5-10 µM
[6] = Drug metabolism in mouse liver assessed as polar radiometabolites accumulation at 13.5 MBq, iv measured after 30 mins by HPLC analysis; format: ADME, organism-based; settings: in vivo, 0.5 h
[7] = Biodistribution in ICR mouse small intestine at 0.74 MBq, iv measured after 2 mins by automatic gamma counter analysis; format: ADME, organism-based; settings: in vivo
[8] = Biodistribution in ICR mouse small intestine at 0.74 MBq, iv measured after 60 mins by automatic gamma counter analysis; format: ADME, organism-based; settings: in vivo, 1 h
[9] = Lipophilicity, logD of compound at pH 7.4 by shake flask method; format: physicochemical; settings: buffer
[10] = Drug uptake in brain of Sprague-Dawley rat at 9.9 to 14.8 MBq, iv pretreated with 1-(5-(3-fluorophenyl)-4,5-dihydro-1H-pyrazol-1-yl)-2,2-dimethylpropan-1-one measured upto 20 mins by PET analysis; format: ADME, organism-based; settings: in vivo, dose 9.9-14.8 MBq
[11] = Drug uptake in thalamus of ICR mouse brain assessed as reduction in radioactivity at 0.5 to 10 uM incubated for 30 mins in presence of 1 uM of GSK'547 by Phosphor Imager analysis; format: ADME, tissue-based; set-up: scale not given: the % may be the effect or the level left; settings: 0.5 h, dose 0.5-10 µM
[12] = Biodistribution in ICR mouse muscle at 0.74 MBq, iv measured after 30 mins by automatic gamma counter analysis; format: ADME, organism-based, Muscle tissue; settings: in vivo, 0.5 h
[13] = Drug metabolism in mouse liver assessed as parent compound remaining at 13.5 MBq, iv measured after 30 mins by HPLC analysis; format: ADME, organism-based; settings: read-out: Activity
[14] = Biodistribution in ICR mouse small intestine at 0.74 MBq, iv measured after 10 mins by automatic gamma counter analysis; format: ADME, organism-based; settings: in vivo
[15] = Biodistribution in ICR mouse spleen at 0.74 MBq, iv measured after 10 mins by automatic gamma counter analysis; format: ADME, organism-based; settings: in vivo
[16] = Drug metabolism in mouse plasma assessed as polar radiometabolites accumulation at 13.5 MBq, iv measured after 30 mins by HPLC analysis; format: ADME, organism-based; settings: 0.5 h
[17] = Stability in saline measured for 60 to 150 mins by reversed-phase HPLC analysis; format: physicochemical; settings: buffer; time 60-150 min
[18] = Biodistribution in ICR mouse heart at 0.74 MBq, iv measured after 10 mins by automatic gamma counter analysis; format: ADME, organism-based; settings: in vivo
[19] = Biodistribution in ICR mouse brain at 0.74 MBq, iv measured after 10 mins by automatic gamma counter analysis; format: ADME, organism-based; settings: in vivo
[20] = Biodistribution in ICR mouse spleen at 0.74 MBq, iv measured after 2 mins by automatic gamma counter analysis; format: ADME, organism-based; settings: in vivo
[21] = Drug metabolism in mouse plasma assessed as parent compound remaining at 13.5 MBq, iv measured after 30 mins by HPLC analysis; format: ADME, organism-based; settings: read-out: Activity
[22] = Biodistribution in ICR mouse muscle at 0.74 MBq, iv measured after 60 mins by automatic gamma counter analysis; format: ADME, organism-based, Muscle tissue; settings: in vivo, 1 h
[23] = Biodistribution in ICR mouse stomach at 0.74 MBq, iv measured after 30 mins by automatic gamma counter analysis; format: ADME, organism-based; settings: in vivo, 0.5 h
[24] = Biodistribution in ICR mouse bone at 0.74 MBq, iv measured after 2 mins by automatic gamma counter analysis; format: ADME, organism-based, Bone element; settings: in vivo
[25] = Biodistribution in ICR mouse stomach at 0.74 MBq, iv measured after 10 mins by automatic gamma counter analysis; format: ADME, organism-based; settings: in vivo
[26] = Biodistribution in ICR mouse blood at 0.74 MBq, iv measured after 10 mins by automatic gamma counter analysis; format: ADME, organism-based; settings: in vivo
[27] = Biodistribution in ICR mouse lung at 0.74 MBq, iv measured after 30 mins by automatic gamma counter analysis; format: ADME, organism-based; settings: in vivo, 0.5 h
[28] = Biodistribution in ICR mouse assessed as drug accumulation in bone without marrow at 0.74 MBq, iv pretreated with 1-(5-(3-fluorophenyl)-4,5-dihydro-1H-pyrazol-1-yl)-2,2-dimethylpropan-1-one followed by compound administration measured after 10 mins by automatic gamma counter analysis; format: ADME, organism-based; settings: in vivo
[29] = Drug uptake in thalamus of ICR mouse brain assessed as reduction in radioactivity incubated for 30 mins in presence of 0.5 uM of GSK'547 by Phosphor Imager analysis; format: ADME, tissue-based; set-up: scale not given: the % may be the effect or the level left; settings: 0.5 h
[30] = Biodistribution in ICR mouse small intestine at 0.74 MBq, iv measured after 30 mins by automatic gamma counter analysis; format: ADME, organism-based; settings: in vivo, 0.5 h
[31] = Biodistribution in ICR mouse spleen at 0.74 MBq, iv measured after 60 mins by automatic gamma counter analysis; format: ADME, organism-based; settings: in vivo, 1 h
[32] = Biodistribution in ICR mouse pancreas at 0.74 MBq, iv measured after 30 mins by automatic gamma counter analysis; format: ADME, organism-based; settings: in vivo, 0.5 h
[33] = Biodistribution in ICR mouse lung at 0.74 MBq, iv measured after 10 mins by automatic gamma counter analysis; format: ADME, organism-based; settings: in vivo
[34] = Biodistribution in ICR mouse bone at 0.74 MBq, iv measured after 30 mins by automatic gamma counter analysis; format: ADME, organism-based, Bone element; settings: in vivo, 0.5 h
[35] = Biodistribution in ICR mouse liver at 0.74 MBq, iv measured after 10 mins by automatic gamma counter analysis; format: ADME, organism-based; settings: in vivo
[36] = Biodistribution in ICR mouse muscle at 0.74 MBq, iv measured after 2 mins by automatic gamma counter analysis; format: ADME, organism-based, Muscle tissue; settings: in vivo
[37] = Biodistribution in ICR mouse assessed as drug accumulation in liver at 0.74 MBq, iv pretreated with GSK'547 followed by compound administration measured after 10 mins by automatic gamma counter analysis; format: ADME, organism-based; settings: in vivo
[38] = Biodistribution in ICR mouse liver at 0.74 MBq, iv measured after 60 mins by automatic gamma counter analysis; format: ADME, organism-based; settings: in vivo, 1 h
[39] = Biodistribution in ICR mouse blood at 0.74 MBq, iv measured after 30 mins by automatic gamma counter analysis; format: ADME, organism-based; settings: in vivo, 0.5 h
[40] = Biodistribution in ICR mouse kidneys at 0.74 MBq, iv measured after 10 mins by automatic gamma counter analysis; format: ADME, organism-based, Kidney; settings: in vivo
[41] = Biodistribution in ICR mouse blood at 0.74 MBq, iv measured after 60 mins by automatic gamma counter analysis; format: ADME, organism-based; settings: in vivo, 1 h
[42] = Biodistribution in ICR mouse assessed as drug accumulation in lungs at 0.74 MBq, iv pretreated with GSK'547 followed by compound administration measured after 10 mins by automatic gamma counter analysis; format: ADME, organism-based; settings: in vivo

CC(C)(C)C(=O)N1N=CCC1c1cccc([18F])c1 (configuration not stated)
Drug uptake [1]: 2.48 % ID/g | Stability [2]: > 98% | Activity [3]: 25.9% | Drug uptake [4]: 0.91 % ID/g | Activity [5]: ~ 26% | Drug metabolism [6]: Metabolite_Detected | Drug uptake [7]: 5.07 % ID/g | Drug uptake [8]: 30.6 % ID/g | logD [9]: 2.25 | Drug uptake [10]: 9.8% | Activity [11]: ~ 18% | Drug uptake [12]: 1.13 % ID/g | remaining at 0.5 h [13]: 1.5% | Drug uptake [14]: 12.64 % ID/g | Drug uptake [15]: 1.99 % ID/g | Drug metabolism [16]: Metabolite_Detected | Stability [17]: > 99% | Drug uptake [18]: 3.27 % ID/g | Drug uptake [19]: 1.36 % ID/g | Drug uptake [20]: 3.17 % ID/g | remaining at 0.5 h [21]: 1.2% | Drug uptake [22]: 0.47 % ID/g | Drug uptake [23]: 0.44 % ID/g | Drug uptake [24]: 3.3 % ID/g | Drug uptake [25]: 0.64 % ID/g | Drug uptake [26]: 4.92 % ID/g | Drug uptake [27]: 2.58 % ID/g | Drug uptake [28]: 21% | Activity [29]: ~ 5% | Drug uptake [30]: 22.56 % ID/g | Drug uptake [31]: 0.41 % ID/g | Drug uptake [32]: 1.51 % ID/g | Drug uptake [33]: 7.23 % ID/g | Drug uptake [34]: 8.26 % ID/g | Drug uptake [35]: 11.39 % ID/g | Drug uptake [36]: 3.7 % ID/g | Drug uptake [37]: 23.2% | Drug uptake [38]: 2.69 % ID/g | Drug uptake [39]: 2.96 % ID/g | Drug uptake [40]: 18.03 % ID/g | Drug uptake [41]: 0.57 % ID/g | Drug uptake [42]: 15.6%
